EP2758401B1 (Bayer Intellectual Property GmbH, priority 2011, dated 2013)

Legend:
MKNK1 [1] = biological target: T1, MKNK1 (Homo sapiens, UniProt Q9BUB5, T385D); experiment: MKNK1 kinase assay (TR-FRET); assay type: biochemical; details: ATP final conc. 10 µM; 15 min pre-incubation; reaction time 45 min at 22°C
T1 construct: GST (N); purchased Carna Biosciences 02-145; host or cells: insect cells (baculovirus expression system)
Protocol: MKNK1-inhibitory activity of compounds of the present invention was quantified employing the MKNK1 TR-FRET assay as described in the following paragraphs.
As substrate for the kinase reaction the biotinylated peptide biotin-Ahx-[…] (C-terminus in amide form) was used which can be purchased e.g. form the company Biosyntan (Berlin-Buch, Germany).
For the assay 50 nL of a 100fold concentrated solution of the test compound in DMSO was pipetted into a black low volume 384well microtiter plate (Greiner Bio-One, Frickenhausen, Germany), 2 µL of a solution of MKNK1 in aqueous assay buffer [50 mM HEPES pH 7.5, 5 mM magnesium chloride, 1.0 mM dithiothreitol, 0.005% (v/v) Nonidet-P40 (Sigma)] was added and the mixture was incubated for 15 min at 22°C to allow pre-binding of the test compounds to the enzyme before the start of the kinase reaction. Then the kinase reaction was started by the addition of 3 µL of a solution of adenosine-tri-phosphate (ATP, 16.7 µM => final conc. in the 5 µL assay volume is 10 µM) and substrate (0.1 µM => final conc. in the 5 µL assay volume is 0.06 µM) in assay buffer and the resulting mixture was incubated for a reaction time of 45 min at 22°C.
The resulting mixture was incubated for 1 h at 22°C to allow the formation of complex between the phosphorylated biotinylated peptide and the detection reagents. Subsequently the amount of phosphorylated substrate was evaluated by measurement of the resonance energy transfer from the Eu-chelate to the streptavidine-XL. Therefore, the fluorescence emissions at 620 nm and 665 nm after excitation at 350 nm were measured in a TR-FRET reader, e.g. a Rubystar (BMG Labtechnologies, Offenburg, Germany) or a Viewlux (Perkin-Elmer). The ratio of the emissions at 665 nm and at […] was taken as the measure for the amount of phosphorylated substrate. The data were normalised (enzyme reaction without inhibitor = 0 % inhibition, all other assay components but no enzyme = 100 % inhibition). […] Table 1: MKNK1 IC50s

MKNK1 [2] = biological target: T1, MKNK1; experiment: MKNK1 kinase high ATP assay (TR-FRET); assay type: biochemical; details: ATP final conc. 2 mM; 15 min pre-incubation; reaction time 30 min at 22°C
Protocol: MKNK1-inhibitory activity at high ATP of compounds of the present invention after their preincubation with MKNK1 was quantified employing the TR-FRET-based MKNK1 high ATP assay as described in the following paragraphs.
As substrate for the kinase reaction the biotinylated peptide biotin-Ahx-[…] (C-terminus in amide form) was used, which can be purchased e.g. from the company Biosyntan (Berlin-Buch, Germany).
For the assay 50 nL of a 100fold concentrated solution of the test compound in DMSO was pipetted into a black low volume 384well microtiter plate (Greiner Bio-One, Frickenhausen, Germany), 2 µL of a solution of MKNK1 in aqueous assay buffer [50 mM HEPES pH 7.5, 5 mM magnesium chloride, 1.0 mM dithiothreitol, 0.005% (v/v) Nonidet-P40 (Sigma)] was added and the mixture was incubated for 15 min at 22°C to allow pre-binding of the test compounds to the enzyme before the start of the kinase reaction. Then the kinase reaction was started by the addition of 3 µL of a solution of adenosine-tri-phosphate (ATP, 3.3 mM => final conc. in the 5 µL assay volume is 2 mM) and substrate (0.1 µM => final conc. in the 5 µL assay volume is 0.06 µM) in assay buffer and the resulting mixture was incubated for a reaction time of 30 min at 22°C. The concentration of MKNK1 was adjusted depending of the activity of the enzyme lot and was chosen appropriate to have the assay in the linear range, typical concentrations were in the range of 0.003 µg/mL. The reaction was stopped by the addition of 5 µL of a solution of TR-FRET detection reagents (5 nM streptavidine-XL665 [Cisbio Bioassays, Codolet, France] and 1 nM anti-ribosomal protein S6 (pSer236)-antibody from Invitrogen [# 44921G] and 1 nM LANCE EU-W1024 labeled ProteinG [Perkin-Elmer, product no. AD0071]) in an aqueous EDTA-solution (100 mM EDTA, 0.1 % (w/v) bovine serum albumin in 50 mM HEPES pH 7.5).
The resulting mixture was incubated for 1 h at 22°C to allow the formation of complex between the phosphorylated biotinylated peptide and the detection reagents. Subsequently the amount of phosphorylated substrate was evaluated by measurement of the resonance energy transfer from the Eu-chelate to the streptavidine-XL. Therefore, the fluorescence emissions at 620 nm and 665 nm after excitation at 350 nm were measured in a TR-FRET reader, e.g. a Rubystar (BMG Labtechnologies, Offenburg, Germany) or a Viewlux (Perkin-Elmer). The ratio of the emissions at 665 nm and at […] was taken as the measure for the amount of phosphorylated substrate. The data were normalised (enzyme reaction without inhibitor = 0 % inhibition, all other assay components but no enzyme = 100 % inhibition).

T1 sequence (Q9BUB5 1-424 isoform Q9BUB5-2 T344D): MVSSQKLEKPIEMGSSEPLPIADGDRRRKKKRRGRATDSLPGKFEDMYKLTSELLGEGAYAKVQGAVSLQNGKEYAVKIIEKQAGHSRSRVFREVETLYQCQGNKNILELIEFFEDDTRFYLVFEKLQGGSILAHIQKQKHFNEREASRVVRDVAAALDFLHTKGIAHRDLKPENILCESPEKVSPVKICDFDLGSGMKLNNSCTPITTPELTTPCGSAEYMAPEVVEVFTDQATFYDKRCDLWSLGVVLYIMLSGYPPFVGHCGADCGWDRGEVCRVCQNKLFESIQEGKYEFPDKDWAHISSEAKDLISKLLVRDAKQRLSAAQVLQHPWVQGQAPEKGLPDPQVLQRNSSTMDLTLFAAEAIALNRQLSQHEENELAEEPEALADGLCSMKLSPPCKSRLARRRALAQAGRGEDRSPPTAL

Compound: NCCCCOc1ccc2ncc(-c3cc4ccccc4o3)n2n1 [Example 8, 4-{[3-(1-Benzofuran-2-yl)imidazo[1,2-b]pyridazin-6-yl]oxy}butan-1-amine]
- IC50 (MKNK1 [1]): 7 nM
- IC50 (MKNK1 [2]): 17 nM

Compound: N[C@H]1C[C@@H](Oc2ccc3ncc(-c4cc5ccccc5o4)n3n2)C1 [Example 3, cis-3-{[3-(1-Benzofuran-2-yl)imidazo[1,2-b]pyridazin-6-yl]oxy}cyclobutan-amine]
- IC50 (MKNK1 [1]): 4 nM
- IC50 (MKNK1 [2]): 17 nM

Compound: COc1cccc2oc(-c3cnc4ccc(OCCN)nn34)cc12 [Example 5, 2-{[3-(4-Methoxy-1-benzofuran-2-yl)imidazo[1,2-b]pyridazin-6-yl]oxy}ethan-amine]
- IC50 (MKNK1 [1]): 6 nM
- IC50 (MKNK1 [2]): 18 nM

Compound: C[C@@H](N)COc1ccc2ncc(-c3cc4ccccc4o3)n2n1 [Example 42, (2R)-1-{[3-(1-Benzofuran-2-yl)imidazo[1,2-b]pyridazin-6-yl]oxy}propan-2-amine]
- IC50 (MKNK1 [1]): 15 nM
- IC50 (MKNK1 [2]): 43 nM

Compound: NCCCOc1ccc2ncc(-c3cc4ccccc4o3)n2n1 [Example 11, 3-{[3-(1-Benzofuran-2-yl)imidazo[1,2-b]pyridazin-6-yl]oxy}propan-1-amine]
- IC50 (MKNK1 [1]): 8 nM
- IC50 (MKNK1 [2]): 24 nM

Compound: COc1ccc2oc(-c3cnc4ccc(O[C@H]5C[C@H](N)C5)nn34)cc2c1 [Example 38, trans-3-{[3-(5-Methoxy-1-benzofuran-2-yl)imidazo[1,2-b]pyridazin-6-yl]oxy}-cyclobutanamine]
- IC50 (MKNK1 [1]): 3 nM
- IC50 (MKNK1 [2]): 6 nM

Compound: N[C@H]1CCC[C@@H]1Oc1ccc2ncc(-c3cc4ccccc4o3)n2n1 [Example 24, (1S,2S)-2-{[3-(1-Benzofuran-2-yl)imidazo[1,2-b]pyridazin-6-yl]oxy}cyclopentan-amine]
- IC50 (MKNK1 [1]): 10 nM
- IC50 (MKNK1 [2]): 19 nM
